These results are taken from US20080038809A1, “ISOLATED LECTIN POLYPEPTIDES CONSISTING OF TRUNCATED […] UDP-GalNAc:POLYPEPTIDE N- ACETYLGALACTOSAMINYLTRANSFERASES” (GLYCOZYM APS, priority 2002, published 2008).

Entries after “also recorded” stand apart in the source; their conditions may differ.

For experiment [1], the system named is MUC1 in CHO1d1D/MUC1F-clone2 cells. The experiment in a line: MUC1 expression in cell lysates, immunoprecipitation and SDS-PAGE western blot (FIGS. 12-15). In kind it is cell-based, Chinese Hamster. As to conditions: 2 mM; for SDS-PAGE migration of MUC1 (O-glycosylation): cells grown in Gal and GalNAc. As to the method: FIG. 12 is an SDS-PAGE Western analysis of GalNAcα-benzyl inhibition of MUC1 expression in CHO 1d1D cells stably transfected with a full coding MUC1 construct. […] Cells were further treated with 2 mM GalNAcα-benzyl (lanes 1, 4, 7, 10), 2 mM GlcNAcα-benzyl (lanes 2, 5, 8, 11) or no inhibitor (lanes 3, 6, 9, 12). Cells were washed and lysed at 24 or 48 hours and the lysates subjected to immunoprecipitation with monoclonal antibody HMFG2, which broadly recognize MUC1 glycoforms. Immunoprecipitates were analysed by SDS-PAGE and western blot using HMFG2 antibody to detect MUC1 expression. Lane M indicates molecular markers with assigned mw. Lane C includes a control MUC1 180-mer tandem repeat peptide which has been GalNAc-glycosylated with 3 moles GalNAc per repeat using GalNAc-T2. The sharp bands migrating at 100-200 kd are immunoglobulins indicated by IgG.
Cells were further treated with 2 mM GalNAcα-benzyl (lanes 1, 4, 7, 10), 2 mM GalNAcβ-benzyl (lanes 2, 5, 8, 11) or 2 mM GlcNAcα-benzyl (lanes 3, 6, 9, 12). Cells were washed and lysed at 36 hours and the lysates subjected to immunoprecipitation with monoclonal antibodies HMFG2 (lanes 1-6) or 5E5 (lanes 7-12). Immunoprecipitates were analysed by SDS-PAGE and western blot using HMFG2 antibody. Lanes M and C as described in legend to FIG. 7.
We next analysed the expression of MUC1 produced by CHO1d1D/MUC1F-clone2 cells by SDS-PAGE western analysis. […] Cells were further treated with 2 mM GalNAcα-benzyl, GlcNAcα-benzyl or no inhibitor. Cells were washed and lysed at 24 or 48 hours and the lysates subjected to immunoprecipitation with monoclonal antibody HMFG2, which broadly recognize MUC1 glycoforms. Immunoprecipitates were analysed by SDS-PAGE and western blot using HMFG2 antibody to detect MUC1 expression. […] In striking contrast, treatment with GalNAcα-benzyl had significant effect after 48 hours. […] This indicates some heterogeneity in glycosylation.
As shown in Examples 2 and 3, polypeptide GalNAc-transferases contain lectin domains with binding properties for GalNAc-peptides including GalNAc-MUC1 peptides. […] GalNAcβ-benzyl, the β-anomeric configuration of GalNAc-benzyl (there is a β linkage between the N-acetylgalactosamine and the benzyl ring), was custom synthesized by Alberta Research Council (Canada), and its structure was confirmed by mass spectrometry and ^1H-NMR. […] Cells were then treated with 2 mM GalNAcα-benzyl, GalNAcβ-benzyl, or GlcNAcα-benzyl as control (GlcNAcα-benzyl was shown in Example 4 to have no effect). Cells were washed and lysed as described above after 36 hours and the lysates subjected to immunoprecipitation with anti-MUC1 monoclonal antibodies HMFG2 or 5E5. […] FIG. 15 illustrates the same experiment as in FIG. 14 except that the detection antibody is 5E5 and only Tn and STn MUC1 glycoforms are visualised.

For experiment [2], the system named is secreted MUC1, wild type CHO/MUC1sol-cloneC4. Put plainly: MUC1 secretion by western blot of medium. In kind it is cell-based, Chinese hamster (CHO cells); human MUC1. Conditions: 1-2 mM. From the text:
Because GalNAcα-benzyl exerts separate effects on O-glycan processing and mucin expression, the use of the novel selective inhibitor of mucin expression, GalNAcβ-benzyl, allow analysis of mucin expression and secretion in different cell line models. Examples of human cell lines (available from ATCC, USA) expressing and secreting mucins are without limitations LS174T, HT29, Colo205, CALU, MCF7, T47D, NCI-H292, and A549. Most human adenocarcinoma cell lines express and secret mucins and analysis with antibodies to detect protein expression or probes to detect mRNA can reveal the types and quantities of mucins. […] This and other cell lines can be used to treat with 2 mM GalNAcβ-benzyl. In this Example we used wild type CHO/MUC1sol-cloneC4 and western blot analysis of medium of cells treated with 1-2 mM GalNAcα-benzyl, GalNAcβ-benzyl, or the control GlcNAcα-benzyl. […] The inhibitory effect on mucin secretion can be quantified by a number of assays known to the skilled in the art including western blot, ELISA, gelfiltration, immunocapture, and other assays.

The target of experiment [3] is T1, human GalNAc-T2 (UDP-GalNAc:polypeptide N-acetylgalactosaminyltransferase T2) isolated truncated lectin domain (T2ld), HIS-tagged, amino acid residues 408-571 o (Homo sapiens, UniProt Q10471).
T1 sequence (Q10471 408-571): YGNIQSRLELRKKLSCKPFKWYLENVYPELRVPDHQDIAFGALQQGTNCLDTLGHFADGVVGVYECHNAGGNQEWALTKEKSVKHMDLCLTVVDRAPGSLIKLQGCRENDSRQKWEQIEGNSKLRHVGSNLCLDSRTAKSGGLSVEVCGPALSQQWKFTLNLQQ
In kind it is binding. From the text: In order to minimize the size and functional complexity of GalNAc-transferase lectins to be used as probes for binding studies, we used multiple sequence alignment analysis to predict and design suitable expression constructs for isolated lectin domains (FIG. 2). In the present invention a direct binding assay was developed using isolated lectin domains of GalNAc-T4 and -T2 with minimal size (FIG. 5). […] The lectin Helix Pomatia (HP) was used as a control plant lectin with known binding specificity for […].
Direct binding ELISA assay was developed as follows: Polystyrene microtiter plates (Maxisorb, Nunc, Denmark) were coated with peptides or enzymatically glycosylated glycopeptides in PBS overnight at 4° C. Plates were washed and blocked with 0.1% Tween20 and 0.2% BSA in PBS for 1 h at room temperature, followed by incubation with biotinylated proteins in PBS with 0.05% Tween20 for 2 h at room temperature. After four washes with PBS, plates were incubated with 1:2,000 dilution streptavidin-HRP (Sigma) in PBS for 30 min at room temperature and washed four times with PBS. Development was performed with 0.5 mg/ml o-phenylenediamine and 0.02% H2O2 at room temperature for 15 min, and reaction stopped by adding 100 μl/well of 0.5 N H2SO4. Competitive inhibition assays were done at end-point titers of GalNAc-transferase proteins with one hour preincubations with inhibitor.
In binding studies using lectins without biotinylation antibodies to the HIS-tag and the T7-tag, or in some experiments antibodies raised to GalNAc-T2 and -T4 enzymes were used to detect binding.
Inhibition experiments were used to further define the binding specificity of GalNAc-T2 and -T4 secreted soluble enzymes as well as lectin domains compared to Helix Pomatia lectin (Table IV).
The ligand target used in this Example is a GalNAc-MUC1 glycopeptide produced enzymatically from synthetic peptides.

For the molecule `CC(=O)N[C@H]1[C@@H](OCc2ccccc2)O[C@H](CO)[C@H](O)[C@@H]1O` [BzlαGalNAc, benzyl-N-acetyl-alpha-D-galactosaminide], the MUC1 expression entry is given as “no significant effect” in experiment [1] (24 hours, HMFG2 blot); “strong inhibition” in experiment [1] (36 hours, 5E5 blot (FIG. 15)); “significant reduction” in experiment [1] (36 hours, HMFG2 blot (FIG. 14)); “significant reduction” in experiment [1] (48 hours, HMFG2 blot, cells grown in GalNAc or Gal and GalNAc). Also, the “SDS-PAGE migration of MUC1 (O-glycosylation)” value in experiment [1] (48 hours, listed as GalNAcα-benzyl) was “significant shift in migration; also recorded: marked shift in migration”.
Consider `CC(=O)N[C@H]1[C@@H](OCc2ccccc2)O[C@H](CO)[C@H](O)[C@@H]1O` [GalNAcα-benzyl, benzyl-N-acetyl-alpha-D-galactosaminide], for which the “inhibition of secreted MUC1” value in experiment [2] is reported as “inhibition of secreted MUC1”. The “inhibition of GalNAc-T2 lectin domain binding (in words)” value in experiment [3] is given as “inhibited binding to the same degree”.
For the molecule `CC(=O)N[C@H]1[C@H](OCc2ccccc2)O[C@H](CO)[C@H](O)[C@@H]1O` [GalNAcβ-benzyl], the “inhibition of secreted MUC1” value in experiment [2] is listed as “inhibition of secreted MUC1”. Besides, in experiment [3], the “inhibition of GalNAc-T2 lectin domain binding (in words)” value is given as “inhibited binding to the same degree”. The MUC1 expression entry in experiment [1] (36 hours, 5E5 blot (FIG. 15)) is listed as “strong inhibition; also recorded: same or better reduction”; in experiment [1] (36 hours, HMFG2 blot (FIG. 14)), “significant reduction; also recorded: same or better reduction”. Further, the “SDS-PAGE migration of MUC1 (O-glycosylation)” value in experiment [1] (36 hours) is “does not interfere with O-glycosylation; also recorded: no change in the migration”.
